Experiments:
Assay type in all cases: functional
Micrococcus luteus = test: Antimicrobial activity against Sarcina lutea
Bacillus subtilis = test: Antimicrobial activity against Bacillus subtilis
Staphylococcus aureus = test: Antimicrobial activity against Staphylococcus aureus
Bacillus cereus = test: Antimicrobial activity against Bacillus cereus
Wickerhamomyces anomalus = test: Antimicrobial activity against Hansenula anomala
Enterococcus faecalis = test: Antimicrobial activity against Streptococcus faecalis

Structure (SMILES)	log(1/C) (Micrococcus luteus)	log(1/C) (Bacillus subtilis)	log(1/C) (Staphylococcus aureus)	log(1/C) (Bacillus cereus)	log(1/C) (Wickerhamomyces anomalus)	log(1/C) (Enterococcus faecalis)
C=C(C)C(=O)Oc1c(Cl)cc(Cl)cc1Cl	3.24	3.76	3.76	3.76	3.46	3.76
C=C(C)C(=O)Oc1cc(Cl)c(Cl)cc1Cl	3.54	3.84	3.84	3.84	3.54	3.84
C=C(C)C(=O)Oc1c(Cl)cc(Cl)c(Cl)c1Cl	3.32	4.67	4.97	4.45	3.45	3.97
C=C(C)C(=O)Oc1c(Cl)c(Cl)c(Cl)c(Cl)c1Cl	3.71	5	5.19	5	3.35	4.71
C=C(C)C(=O)Oc1c(Br)c(Br)c(Br)c(Br)c1Br	3.64	5.32	5.32	3.85	3.35	3.64

Source: ChEMBL document CHEMBL3272085, “Quantitative structure-activity relationships. 2. A mixed approach, based on Hansch and Free-Wilson Analysis” (1976)
